The source made the active and inactive calls. The calls are words filed in the database; no cut-off is given here.
Tests used:
[1] = biological target: Tyrosine-protein kinase ABL1 (Homo sapiens, UniProt P00519); assay: Inhibition of nonphosphorylated ABL1 (unknown origin) at 1 uM by Ambit Kinomescan binding assay relative to control
[2] = biological target: T1, Eukaryotic elongation factor 2 kinase (Homo sapiens) (UniProt O00418); assay: Inhibition of eEF2K ATP labeling site harbouring YIKYNSNSGFVR in human A-375 cells at 0.5 uM by KiNativ Profiling analysis relative to control; assay type: cell-based
T1 sequence (whole entry): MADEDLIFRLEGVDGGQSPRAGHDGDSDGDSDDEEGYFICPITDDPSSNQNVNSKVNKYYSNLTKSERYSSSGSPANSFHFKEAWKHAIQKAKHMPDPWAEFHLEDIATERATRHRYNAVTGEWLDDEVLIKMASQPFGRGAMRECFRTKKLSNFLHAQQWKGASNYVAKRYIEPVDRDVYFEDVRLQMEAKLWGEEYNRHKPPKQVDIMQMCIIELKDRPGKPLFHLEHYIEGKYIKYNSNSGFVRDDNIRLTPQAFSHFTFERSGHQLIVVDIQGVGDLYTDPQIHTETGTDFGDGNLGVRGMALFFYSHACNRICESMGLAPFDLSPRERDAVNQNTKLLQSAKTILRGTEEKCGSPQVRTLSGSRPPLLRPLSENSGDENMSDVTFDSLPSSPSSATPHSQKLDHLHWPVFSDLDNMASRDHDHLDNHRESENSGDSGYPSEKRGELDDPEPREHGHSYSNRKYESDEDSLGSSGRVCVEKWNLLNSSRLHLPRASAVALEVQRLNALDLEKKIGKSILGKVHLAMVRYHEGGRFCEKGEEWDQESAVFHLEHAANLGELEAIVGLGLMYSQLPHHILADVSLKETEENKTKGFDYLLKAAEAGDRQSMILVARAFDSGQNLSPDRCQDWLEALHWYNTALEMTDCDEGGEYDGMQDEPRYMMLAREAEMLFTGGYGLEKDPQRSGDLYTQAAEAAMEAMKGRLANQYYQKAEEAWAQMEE

[3] = tested on: Tyrosine-protein kinase ABL1 (Homo sapiens), P00519 [Q252H]; assay: Inhibition of ABL1 Q252H mutant (unknown origin) at 10 uM by Ambit Kinomescan binding assay relative to control
[4] = tested on: Epidermal growth factor receptor (Homo sapiens), P00533 [G719C]; assay: Inhibition of EGFR G719C mutant (unknown origin) at 10 uM by Ambit Kinomescan binding assay relative to control
Sequence of Epidermal growth factor receptor (Homo sapiens), P00533 [G719C] (P00533 whole entry G719C): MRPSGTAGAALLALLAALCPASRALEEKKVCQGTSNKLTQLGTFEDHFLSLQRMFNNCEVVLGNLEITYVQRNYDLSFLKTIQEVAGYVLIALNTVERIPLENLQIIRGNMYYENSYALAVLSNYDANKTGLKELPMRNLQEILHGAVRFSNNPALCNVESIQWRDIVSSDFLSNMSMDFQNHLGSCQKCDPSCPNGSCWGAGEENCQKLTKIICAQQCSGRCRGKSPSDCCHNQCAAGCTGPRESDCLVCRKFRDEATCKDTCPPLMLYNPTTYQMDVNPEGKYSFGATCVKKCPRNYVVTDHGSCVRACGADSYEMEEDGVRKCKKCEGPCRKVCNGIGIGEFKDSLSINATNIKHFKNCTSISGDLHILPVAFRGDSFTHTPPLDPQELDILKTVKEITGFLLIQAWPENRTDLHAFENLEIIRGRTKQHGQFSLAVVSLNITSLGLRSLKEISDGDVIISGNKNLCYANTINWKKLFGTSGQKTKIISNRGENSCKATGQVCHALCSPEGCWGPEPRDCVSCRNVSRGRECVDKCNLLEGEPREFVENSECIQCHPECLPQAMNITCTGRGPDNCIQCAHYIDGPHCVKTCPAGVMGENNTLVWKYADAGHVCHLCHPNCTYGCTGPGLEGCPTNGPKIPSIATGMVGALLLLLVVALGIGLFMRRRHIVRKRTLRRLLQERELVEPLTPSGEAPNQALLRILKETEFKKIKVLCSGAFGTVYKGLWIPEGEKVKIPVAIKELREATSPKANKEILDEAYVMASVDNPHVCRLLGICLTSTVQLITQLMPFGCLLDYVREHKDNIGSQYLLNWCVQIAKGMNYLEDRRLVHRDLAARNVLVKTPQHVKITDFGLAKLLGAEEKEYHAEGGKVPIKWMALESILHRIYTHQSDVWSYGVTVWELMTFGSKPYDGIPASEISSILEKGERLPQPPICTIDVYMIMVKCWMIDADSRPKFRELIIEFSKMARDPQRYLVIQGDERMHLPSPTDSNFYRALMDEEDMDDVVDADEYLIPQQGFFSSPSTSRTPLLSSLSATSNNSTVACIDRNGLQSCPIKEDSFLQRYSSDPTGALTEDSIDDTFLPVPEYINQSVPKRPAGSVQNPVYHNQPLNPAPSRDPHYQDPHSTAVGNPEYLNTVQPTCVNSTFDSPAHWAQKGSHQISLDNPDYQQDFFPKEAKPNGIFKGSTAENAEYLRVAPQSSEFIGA

[5] = tested on: Epidermal growth factor receptor (Homo sapiens), P00533 [UNDEFINED MUTATION]; assay: Inhibition of EGFR S752-I759del mutant (unknown origin) at 10 uM by Ambit Kinomescan binding assay relative to control
Sequence of Epidermal growth factor receptor (Homo sapiens), P00533 [UNDEFINED MUTATION] (P00533 whole entry, looked up, stated change not applied): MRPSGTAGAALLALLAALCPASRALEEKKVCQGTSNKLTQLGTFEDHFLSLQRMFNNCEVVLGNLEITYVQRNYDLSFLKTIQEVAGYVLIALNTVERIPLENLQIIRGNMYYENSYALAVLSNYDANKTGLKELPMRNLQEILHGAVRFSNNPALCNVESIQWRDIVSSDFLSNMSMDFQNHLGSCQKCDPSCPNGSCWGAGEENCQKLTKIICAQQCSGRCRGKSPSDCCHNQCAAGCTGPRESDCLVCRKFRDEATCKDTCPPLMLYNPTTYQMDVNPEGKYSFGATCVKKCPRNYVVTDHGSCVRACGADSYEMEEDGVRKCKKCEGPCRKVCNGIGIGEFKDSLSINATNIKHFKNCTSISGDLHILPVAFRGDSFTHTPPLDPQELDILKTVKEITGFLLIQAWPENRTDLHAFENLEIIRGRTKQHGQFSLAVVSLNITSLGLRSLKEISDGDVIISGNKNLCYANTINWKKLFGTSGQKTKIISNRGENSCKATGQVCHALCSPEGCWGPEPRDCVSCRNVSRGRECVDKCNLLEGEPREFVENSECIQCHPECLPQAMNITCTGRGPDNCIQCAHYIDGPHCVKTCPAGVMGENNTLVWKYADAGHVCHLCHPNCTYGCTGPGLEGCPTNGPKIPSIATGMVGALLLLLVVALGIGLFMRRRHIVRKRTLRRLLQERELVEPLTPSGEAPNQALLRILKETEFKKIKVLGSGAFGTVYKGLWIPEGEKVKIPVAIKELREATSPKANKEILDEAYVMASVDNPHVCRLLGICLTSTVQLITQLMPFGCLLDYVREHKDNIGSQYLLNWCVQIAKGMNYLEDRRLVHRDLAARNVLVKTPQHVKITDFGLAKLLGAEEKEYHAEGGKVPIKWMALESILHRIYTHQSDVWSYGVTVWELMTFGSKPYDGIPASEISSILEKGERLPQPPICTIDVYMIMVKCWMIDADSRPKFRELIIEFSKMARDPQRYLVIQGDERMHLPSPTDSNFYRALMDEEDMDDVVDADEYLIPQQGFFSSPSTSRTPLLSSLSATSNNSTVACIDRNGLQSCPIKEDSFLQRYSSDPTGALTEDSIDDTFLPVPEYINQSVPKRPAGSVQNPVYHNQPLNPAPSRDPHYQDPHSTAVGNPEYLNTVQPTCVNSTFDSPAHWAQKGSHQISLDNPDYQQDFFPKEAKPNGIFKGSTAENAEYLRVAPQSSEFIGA

[6] = biological target: Serine/threonine-protein kinase PAK 4 (Homo sapiens) (UniProt O96013); assay: Inhibition of PAK4 (unknown origin) at 10 uM by Ambit Kinomescan binding assay
Sequence of Serine/threonine-protein kinase PAK 4 (Homo sapiens) (O96013 whole entry, looked up, the tested form may be a part): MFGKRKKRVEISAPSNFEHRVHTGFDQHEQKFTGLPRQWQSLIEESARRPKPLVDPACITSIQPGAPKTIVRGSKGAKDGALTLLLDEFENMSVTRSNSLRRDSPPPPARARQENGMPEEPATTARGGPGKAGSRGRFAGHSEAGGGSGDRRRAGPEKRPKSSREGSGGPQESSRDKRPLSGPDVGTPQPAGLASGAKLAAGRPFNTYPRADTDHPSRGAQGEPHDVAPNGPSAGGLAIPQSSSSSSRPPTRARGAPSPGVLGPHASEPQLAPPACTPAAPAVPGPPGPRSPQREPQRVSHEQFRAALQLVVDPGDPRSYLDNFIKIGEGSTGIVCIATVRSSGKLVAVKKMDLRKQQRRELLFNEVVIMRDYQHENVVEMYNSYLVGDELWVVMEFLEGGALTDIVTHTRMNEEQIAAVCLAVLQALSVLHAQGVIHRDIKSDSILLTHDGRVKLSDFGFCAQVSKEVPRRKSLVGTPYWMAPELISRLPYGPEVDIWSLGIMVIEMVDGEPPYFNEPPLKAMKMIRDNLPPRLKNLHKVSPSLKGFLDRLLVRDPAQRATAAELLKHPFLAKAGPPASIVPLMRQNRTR

[7] = biological target: Ribosomal protein S6 kinase alpha-1 (Homo sapiens) (UniProt Q15418); assay: Inhibition of C-terminal RPS6KA1 kinase domain 2 (unknown origin) at 10 uM by Ambit Kinomescan binding assay
Sequence of Ribosomal protein S6 kinase alpha-1 (Homo sapiens) (Q15418 whole entry, the tested form may be a part): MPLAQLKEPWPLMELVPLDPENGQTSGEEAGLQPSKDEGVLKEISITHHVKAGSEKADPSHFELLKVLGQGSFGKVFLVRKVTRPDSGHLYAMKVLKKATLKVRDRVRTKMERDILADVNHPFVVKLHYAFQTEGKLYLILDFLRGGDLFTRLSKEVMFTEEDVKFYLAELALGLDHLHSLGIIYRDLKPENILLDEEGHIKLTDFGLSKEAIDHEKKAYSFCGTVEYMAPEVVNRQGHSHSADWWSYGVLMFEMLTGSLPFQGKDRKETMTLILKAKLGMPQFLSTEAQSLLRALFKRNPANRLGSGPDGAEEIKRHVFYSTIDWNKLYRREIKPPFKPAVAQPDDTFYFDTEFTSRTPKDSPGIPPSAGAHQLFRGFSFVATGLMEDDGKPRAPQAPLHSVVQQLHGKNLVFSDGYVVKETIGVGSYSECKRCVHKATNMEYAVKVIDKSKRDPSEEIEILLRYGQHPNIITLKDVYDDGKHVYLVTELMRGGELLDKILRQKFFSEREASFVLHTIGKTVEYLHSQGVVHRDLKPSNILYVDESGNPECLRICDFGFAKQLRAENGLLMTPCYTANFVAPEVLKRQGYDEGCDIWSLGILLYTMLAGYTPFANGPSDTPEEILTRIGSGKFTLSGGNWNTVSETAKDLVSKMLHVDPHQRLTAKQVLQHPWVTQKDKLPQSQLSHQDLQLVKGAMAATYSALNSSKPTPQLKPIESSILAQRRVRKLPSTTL

[8] = Inhibition of KHS1 Lys2 labeling site in human A-375 cells at 0.05 uM by KiNativ Profiling analysis relative to control; details: condition cancer
[9] = biological target: T2, Mitogen-activated protein kinase kinase kinase 3 (Homo sapiens) (UniProt Q99759); assay: Inhibition of MAP3K3 Lys2 labeling site in human A-375 cells at 0.05 uM by KiNativ Profiling analysis relative to control; assay type: cell-based
T2 sequence (whole entry): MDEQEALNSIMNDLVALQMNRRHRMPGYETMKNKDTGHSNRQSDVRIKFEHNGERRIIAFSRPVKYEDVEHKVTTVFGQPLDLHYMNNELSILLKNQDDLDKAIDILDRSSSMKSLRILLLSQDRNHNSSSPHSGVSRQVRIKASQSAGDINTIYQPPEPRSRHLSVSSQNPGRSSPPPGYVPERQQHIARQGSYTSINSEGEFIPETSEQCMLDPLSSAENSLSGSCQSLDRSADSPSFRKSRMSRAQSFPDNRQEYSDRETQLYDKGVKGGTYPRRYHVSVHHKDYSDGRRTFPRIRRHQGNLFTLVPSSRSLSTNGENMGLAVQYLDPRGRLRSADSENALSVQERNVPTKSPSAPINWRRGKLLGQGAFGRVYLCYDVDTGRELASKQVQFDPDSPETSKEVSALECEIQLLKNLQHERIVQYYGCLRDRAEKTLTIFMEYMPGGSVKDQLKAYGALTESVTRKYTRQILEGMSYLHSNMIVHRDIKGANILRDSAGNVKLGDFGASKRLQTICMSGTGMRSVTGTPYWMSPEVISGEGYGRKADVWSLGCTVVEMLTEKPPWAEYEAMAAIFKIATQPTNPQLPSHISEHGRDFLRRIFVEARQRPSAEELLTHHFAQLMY

[10] = biological target: Serine/threonine-protein kinase Nek4 (Homo sapiens) (UniProt P51957); assay: Inhibition of NEK4 K2 labeling site in human Huh-7 cells at 10 uM by KiNativ Profiling analysis relative to control; assay type: cell-based
Sequence of Serine/threonine-protein kinase Nek4 (Homo sapiens) (P51957 whole entry, looked up): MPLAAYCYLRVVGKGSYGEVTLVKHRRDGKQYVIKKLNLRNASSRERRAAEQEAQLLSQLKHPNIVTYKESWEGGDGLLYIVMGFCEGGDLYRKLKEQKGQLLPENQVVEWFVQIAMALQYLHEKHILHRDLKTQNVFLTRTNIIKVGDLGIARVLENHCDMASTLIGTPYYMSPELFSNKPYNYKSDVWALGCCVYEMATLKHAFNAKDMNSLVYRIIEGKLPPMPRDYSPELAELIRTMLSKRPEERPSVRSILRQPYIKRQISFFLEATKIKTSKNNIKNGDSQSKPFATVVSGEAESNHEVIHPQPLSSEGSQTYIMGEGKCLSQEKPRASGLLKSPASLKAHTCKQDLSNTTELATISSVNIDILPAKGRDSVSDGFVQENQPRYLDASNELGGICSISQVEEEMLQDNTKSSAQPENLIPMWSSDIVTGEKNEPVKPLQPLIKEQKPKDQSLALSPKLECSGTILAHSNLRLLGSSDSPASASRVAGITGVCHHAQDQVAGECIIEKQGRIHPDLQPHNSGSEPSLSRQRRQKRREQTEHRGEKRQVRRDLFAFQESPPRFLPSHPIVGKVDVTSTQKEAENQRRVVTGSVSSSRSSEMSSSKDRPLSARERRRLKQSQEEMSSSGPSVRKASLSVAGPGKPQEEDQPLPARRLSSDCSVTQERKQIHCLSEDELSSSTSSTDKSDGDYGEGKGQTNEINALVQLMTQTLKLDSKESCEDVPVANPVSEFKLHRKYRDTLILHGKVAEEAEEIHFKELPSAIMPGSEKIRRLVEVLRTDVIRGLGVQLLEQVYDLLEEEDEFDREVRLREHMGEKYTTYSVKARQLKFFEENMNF

[11] = biological target: ALK tyrosine kinase receptor (Homo sapiens) (UniProt Q9UM73); assay: Inhibition of ALK (unknown origin) at 10 uM by Ambit Kinomescan binding assay relative to control; values are per cent of control
[12] = biological target: TRAF2 and NCK-interacting protein kinase (Homo sapiens) (UniProt Q9UKE5); assay: Inhibition of ZC2/TNIK Lys1 labeling site in human Huh-7 cell lysate at 1 uM by KiNativ Profiling analysis relative to control; assay type: subcellular
[13] = biological target: Tyrosine-protein kinase CSK (Homo sapiens, UniProt P41240); assay: Inhibition of CSK ACT labeling site harbouring EASSTQDTGKLPVKWTAPEALR in human Huh-7 cell lysate at 1 uM by KiNativ Profiling analysis relative to control; assay type: subcellular
Sequence of Tyrosine-protein kinase CSK (P41240 2-450 limits assumed): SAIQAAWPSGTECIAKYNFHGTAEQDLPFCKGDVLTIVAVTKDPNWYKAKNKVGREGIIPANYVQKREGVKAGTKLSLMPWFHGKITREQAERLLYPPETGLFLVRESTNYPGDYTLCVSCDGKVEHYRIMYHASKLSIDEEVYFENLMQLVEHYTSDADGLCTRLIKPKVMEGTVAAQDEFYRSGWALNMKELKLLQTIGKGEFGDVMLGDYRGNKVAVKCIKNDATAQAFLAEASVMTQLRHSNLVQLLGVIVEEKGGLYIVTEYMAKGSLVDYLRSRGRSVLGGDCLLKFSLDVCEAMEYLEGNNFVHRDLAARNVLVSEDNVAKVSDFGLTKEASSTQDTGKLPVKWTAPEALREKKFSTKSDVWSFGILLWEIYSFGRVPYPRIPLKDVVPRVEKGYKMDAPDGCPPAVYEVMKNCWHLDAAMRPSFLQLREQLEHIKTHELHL

[14] = biological target: Ribosomal protein S6 kinase alpha-1 (Homo sapiens) (UniProt Q15418); assay: Inhibition of RSK1 domain 1 ACT labeling site in human Huh-7 cell lysate at 1 uM by KiNativ Profiling analysis relative to control; assay type: subcellular
[15] = biological target: STE20-like serine/threonine-protein kinase (Homo sapiens) (UniProt Q9H2G2); assay: Inhibition of SLK Lys2 labeling site harbouring IIHRDLKAGNILFTLDGDIK in human Huh-7 cell lysate at 1 uM by KiNativ Profiling analysis relative to control; assay type: subcellular

CCN1CCN(Cc2ccc(NC(=O)c3ccc(C)c(/C=C/c4cnc5[nH]ccc5c4OC)c3)cc2C(F)(F)F)CC1
inhibition [1]: 0%
inhibition [2]: -8.5%

CCN1CCN(Cc2ccc(NC(=O)c3ccc(C)c(Oc4ccnc5[nH]ccc45)c3)cc2C(F)(F)F)CC1
inhibition [3]: 0.4%
inhibition [4]: 12%
inhibition [5]: 4.6%
inhibition [6]: inactive
inhibition [7]: inactive
inhibition at 0.05 µM [8]: -15.4%
inhibition [9]: 7.6%
inhibition [10]: 11.4%
percent of control [11]: 0.55%

CNc1cc(Oc2cc(C(=O)Nc3cc(N4CCN(C)CC4)cc(C(F)(F)F)c3)ccc2C)ncn1
inhibition [12]: 11.9%
inhibition [13]: 0.4%
inhibition [14]: 9.3%
inhibition [15]: 24.8%
